For series [1], the system named is male beagle dogs. The series is described as follows: Effect of combination with pravastatin on plasma total cholesterol levels in dogs. Type of series: in vivo, dog. From the text:
The effect of the combination of the compounds described in Example with pravastatin (HMG-CoA reductase inhibitor) on plasma cholesterol levels in dogs was examined.
To male beagle dogs (supplied from Kitayama Labes, body weight 9 to 13 kg), usual solid feedstuff (DS-A: Oriental Yeast Co., Ltd.) was given once daily at 13:00 to 14:00. The light was turned on from 7:00 to 19:00 as a light period, and the remaining was defined as a dark period. Water was given ad libitum. In the morning in the week prior to the administration, the blood was collected with heparin from forearm cephalic vein, and plasma was collected by centrifugation. The total cholesterol level of this plasma was measured using the commercially available cholesterol level measurement kit by the enzymatic method (Cholesterol-E Test Wako). The dogs were grouped so that the total cholesterol levels were almost equal. Sodium pravastatin (1 mg/kg, Sankyo) alone or 3 mg/kg of the compound described in each of Examples alone or the combination thereof was orally administered once daily just before feeding for 7 days. Pravastatin was dissolved in distilled water, and the compound described in Example was suspended in 0.5% methylcellulose solution for administration. On the day after the final administration, the blood was collected from the forearm cephalic vein under starving, to which plasma was obtained. The total cholesterol level therein was measured by the same way. As a result, the total cholesterol level in the plasma was reduced by 7 mg/dL (6%) by orally administering 1 mg/kg/day of pravastatin for 7 days. The total cholesterol level in the plasma was reduced by […] (3 to 8%) by orally administering 3 mg/kg/day of the compound described in each of Examples for 7 days. When pravastatin and the compound described in each of Examples were co-administered at this dosages, the total cholesterol in the plasma was reduced by 14 to 24 mg/dL (12 to 20%). The reduction rate of the total cholesterol level was larger in the co-administration with the compound described in Example than in the administration of pravastatin alone, and the augmented effect by the co-administration was observed.

The subject of series [2] is Caco-2 cells. In words: Facilitation effect on permeability of combined compound (pravastatin, atorvastatin) through Caco-2 cells. As for the experimental part:
The permeability through Caco-2 cells was measured by the same way as in Test Example 15.
It was examined whether the permeability coefficient of the combined compound was changed in the presence of the compound described in Examples or the compound in Comparative Examples.
(Caco-2 monolayers are a common model of the intestinal barrier.)

Setting [3] is: pravastatin 1 mg/kg alone, oral once daily for 7 days, vehicle 1.

Data on one molecule can be found in patent US20120015925A1, “NOVEL BENZOTHIAZEPINE AND BENZOTHIEPINE COMPOUNDS” (ASAHI KASEI PHARMA CORPORATION, priority 2004, published 2012).

Structures are written as SMILES.

`CC[C@H](C)C(=O)O[C@H]1C[C@H](O)C=C2C=C[C@H](C)[C@H](CC[C@@H](O)C[C@@H](O)CC(=O)O)[C@H]21` [pravastatin, reference compound]: the “plasma total cholesterol BEFORE TREATMENT” value in series [1] (pravastatin 1 mg/kg alone group, baseline, N=4, mean±standard error) is recorded as 114 ± 6 mg/dL. The “plasma total cholesterol AFTER TREATMENT” value in series [1] (pravastatin 1 mg/kg alone, oral once daily for 7 days, N=4, mean±standard error) was determined as 106 ± 5 mg/dL. Moreover, in series [1] (setting [3]), the “plasma total cholesterol BEFORE TREATMENT − AFTER TREATMENT” value stood at 7 mg/dL and the “reduction rate with respect to the data before administration (number in parenthesis)” value stood at 6. Besides, the “total cholesterol level in the plasma reduced by” value in series [1] (pravastatin alone 1 mg/kg/day oral, 7 days) is recorded as 7 mg/dL. Also, the “total cholesterol level in the plasma, reduction rate” value in series [1] (pravastatin alone 1 mg/kg/day oral, 7 days, with respect to before administration) turned out to be 6%. In addition, in series [2] (statin alone (reference = 100)), the “RATE OF INCREASE (%)” value is 100%. Further, the “[…] (PERMEATION × 10^−6 cm/s)” value in series [2] (statin alone, 25 μM, 37° C., 2 hours) was 0.33 × 10^−6 cm/s.
